Assay results published in US5235045A, “Non-azo naphthalimide dyes” (priority 1992, dated 1993).

Assays:
[1] = Bleaching in distearoylphosphatidyl choline vesicles; assay type: physicochemical; conditions: irradiated vesicles
Procedure: The dye was incorporated into synthetic vesicles as described above. The vesicles were irradiated with a 150-W Oriel xenon arc lamp at a distance of 4 cm from the lens at a thermostated temperature of 20° C. The change in fluorescence intensity with time was determined above, and the results plotted as a standard first order plot.

H9 cells [2] = experiment: Dye-mediated light kill of H9 cells (trypan blue); assay type: cell-based; conditions: Homo sapiens, 10% FCS medium, read-out: Percent Viability
Procedure: Photoinduced killing of H9 cells with Compound 1b as the mediator of photochemical toxicity were carried out according to the following protocol:
Compound 1b was added to the H9 cells (5×10^5 /ml) in medium or 100% human plasma to give dye concentrations of 0, 25 and 100 μM (1 control, 2 duplicates of both non-azo dye samples). Two 2-ml aliquots of each of the duplicated dye samples was irradiated with 10J/cm^2 total energy of 450±35 nm wavelength light in a sealed 3-ml test tube. Immediately after irradiation, the cells were centrifuged at 450×g for 10 minutes, and the pellets resuspended in the original volume of fresh RPMI-1640+10% FCS+gentamycin. The cell suspensions were transferred to a 12-well TC plate and placed in a 37° C. 5% CO2 incubator. Cell viability counts (trypan blue) were carried out at 4, 24, 48, and 72 hours post irradiation. The results of these experiments are summarized in Tables 7 (medium) and 8 (100% human plasma).
Photoinduced killing of H9 cells with Compound VII as the mediator of photochemical toxicity were carried out in 10% FCS medium according to the same general protocol using concentrations of the dye at 0, 5, 25 and 100 μM., and irradiating at 420±5 nm at 10J/cm^2 total energy.

[3] = test system: Human Herpes Simplex Virus Type I; experiment: Photoinduced inactivation of HSV-I, plaque assay (Table 11); assay type: cell-based; conditions: 420±5 nm, 20J/cm^2
H9 cells [4] = experiment: Effect of Ed6Br and 420 nm light on H9 cells (Trypan Blue); assay type: cell-based, human; design: live cells / dead cells: unit not given here
Procedure: H9 cells (an immortal human T-cell lymphoma) were cultured in RPMI-1640 medium containing 10% additional fetal calf serum hold in air with a 5% CO2 atmosphere at 37.5° C. to a cell density in the range of 10^5 -10^7 per ml. Cells were, harvested by centrifugation and six 3ml. […] The remaining 3 samples wrapped in aluminum foil were handled identically but not irradiated. Immediately after irradiation, the cells in all samples were sedimented by centrifugation at 450 x g for 10 minutes and the cell pellets individually resuspended to the original 3 ml volume of RPMI-1640 containing an additional 10% fetal calf serum plus Gentamycin antibiotic. The samples were incubated for 24 hr. under normal culture conditions cited above. Cell viability was assessed by Trypan Blue dye exclusion counts using a standard hemocytometer after 24 hr incubation. […]

H9 cells [5] = experiment: Effects on H9 cells of Ed6Br with prior activation by 420 nm light (Trypan Blue); assay type: cell-based; conditions: Homo sapiens, H9, 24 h, read-out: % Viable Cells
[6] = H9, light or radiation study, 4 h, hν 420±5 nm 10J/cm^2, 4 hours
[7] = 5 μM, irradiated 10 J/cm^2, 420 nm
[8] = 25 μM, irradiated 10 J/cm^2, 420 nm

CCCCCCNc1c(Br)cc2c3c(cccc13)C(=O)N(CCCCCC)C2=O [Compound VII, 3-bromo-4-(hexyl)amino-N-hexyl-1,8-naphthalimide]
bleaching [1]: do not bleach
photodegradation of the dye [1]: only very slow photodegradation
viability at 5 µM (H9 cells [2]; H9, 4 h, no hν, 4 hours): 86.5%
viability at 25 µM (H9 cells [2]; H9, 4 h, no hν, 4 hours (Table 9)): 90%
viability at 5 µM (H9 cells [2]; [6]): 0%
viability at 25 µM (H9 cells [2]; [6]): 0%
viability at 100 µM (H9 cells [2]; H9, light or radiation study, 4 h, 100 μM, hν 420±5 nm 10J/cm^2, 4 hours, light reached only approximately 2 mm): 1.8%
Infectivity, Average ([3]; 0.078 μM): 37.5 PFU/ml
Infectivity, first PFU/ml column ([3]; 0.078 μM): 45 PFU/ml
Infectivity, second PFU/ml column ([3]; 0.078 μM): 30 PFU/ml
Infectivity, Average ([3]; 0.156 μM): 17.5 PFU/ml
Infectivity, first PFU/ml column ([3]; 0.156 μM): 20 PFU/ml
Infectivity, second PFU/ml column ([3]; 0.156 μM): 15 PFU/ml
Infectivity, Average ([3]; 0.312 μM): 7.5 PFU/ml
Infectivity, first PFU/ml column ([3]; 0.312 μM): 10 PFU/ml
Infectivity, second PFU/ml column ([3]; 0.312 μM): 5 PFU/ml
Infectivity, Average ([3]; 0.625 μM): 0 PFU/ml
Infectivity, first PFU/ml column ([3]; 0.625 μM): 0 PFU/ml
Infectivity, Average ([3]; 1.25 μM): 0 PFU/ml
Infectivity, first PFU/ml column ([3]; 1.25 μM): 0 PFU/ml
Infectivity, second PFU/ml column ([3]; 1.25 μM): 0 PFU/ml
Infectivity, Average ([3]; 2.5 μM): 0 PFU/ml
Infectivity, first PFU/ml column ([3]; 2.5 μM): 0 PFU/ml
Infectivity, second PFU/ml column ([3]; 2.5 μM): 0 PFU/ml
Infectivity, Average ([3]; 5 μM): 0 PFU/ml
Infectivity, first PFU/ml column ([3]; 5 μM): 0 PFU/ml
Infectivity, second PFU/ml column ([3]; 5 μM): 0 PFU/ml
Infectivity, Average ([3]; 10 μM): 0 PFU/ml
Infectivity, first PFU/ml column ([3]; 10 μM): 0 PFU/ml
Infectivity, second PFU/ml column ([3]; 10 μM): 0 PFU/ml
activity at 0.078 µM ([3]; Human alphaherpesvirus 1, light or radiation study, 0.078 μM, read-out: % Survival): 0.006%
log reduction at 0.078 µM ([3]; Human alphaherpesvirus 1, light or radiation study, 0.078 μM, read-out: log10 reduction): 4.2
activity at 0.156 µM ([3]; Human alphaherpesvirus 1, light or radiation study, 0.156 μM, read-out: % Survival): 0.0028%
log reduction at 0.156 µM ([3]; Human alphaherpesvirus 1, light or radiation study, 0.156 μM, read-out: log10 reduction): 4.5
activity at 0.312 µM ([3]; Human alphaherpesvirus 1, light or radiation study, 0.312 μM, read-out: % Survival): 0.0012%
log reduction at 0.312 µM ([3]; Human alphaherpesvirus 1, light or radiation study, 0.312 μM, read-out: log10 reduction): 4.9
activity at 0.625 µM ([3]; Human alphaherpesvirus 1, light or radiation study, 0.625 μM, read-out: % Survival): < 0.0002%
log reduction at 0.625 µM ([3]; Human alphaherpesvirus 1, light or radiation study, 0.625 μM, read-out: log10 reduction): > 5.7
activity at 1.25 µM ([3]; Human alphaherpesvirus 1, light or radiation study, 1.25 μM, read-out: % Survival): < 0.0002%
log reduction at 1.25 µM ([3]; Human alphaherpesvirus 1, light or radiation study, 1.25 μM, read-out: log10 reduction): > 5.7
activity at 2.5 µM ([3]; Human alphaherpesvirus 1, light or radiation study, 2.5 μM, read-out: % Survival): < 0.0002%
log reduction at 2.5 µM ([3]; Human alphaherpesvirus 1, light or radiation study, 2.5 μM, read-out: log10 reduction): > 5.7
activity at 5 µM ([3]; Human alphaherpesvirus 1, light or radiation study, 5 μM, read-out: % Survival): < 0.0002%
log reduction at 5 µM ([3]; Human alphaherpesvirus 1, light or radiation study, 5 μM, read-out: log10 reduction): > 5.7
activity at 10 µM ([3]; Human alphaherpesvirus 1, light or radiation study, 10 μM, read-out: % Survival): < 0.0002%
log reduction at 10 µM ([3]; Human alphaherpesvirus 1, light or radiation study, 10 μM, read-out: log10 reduction): > 5.7
Cells/ml (H9 cells [4]; 5 μM, dark): 7.70 × 10^5 Cells/ml
dead cells (H9 cells [4]; 5 μM, dark): 12
live cells (H9 cells [4]; 5 μM, dark): 77
Cells/ml (H9 cells [4]; [7]): 0.0 Cells/ml
dead cells (H9 cells [4]; [7]): 47
live cells (H9 cells [4]; [7]): 0
Cells/ml (H9 cells [4]; 25 μM, dark): 9.9 × 10^5 Cells/ml
dead cells (H9 cells [4]; 25 μM, dark): 11
live cells (H9 cells [4]; 25 μM, dark): 99
Cells/ml (H9 cells [4]; [8]): 0.0 Cells/ml
dead cells (H9 cells [4]; [8]): 41
live cells (H9 cells [4]; [8]): 0
H9 cells inactivated or killed (H9 cells [4]; 5 mM or greater (so in the source), activated by light, 1440 min): ~100%
cytotoxicity at 25 µM (H9 cells [4]; Homo sapiens, H9, 24 h, 25 µM, dark, printed approximately 10% or less, read-out: cells inactivated in absence of light): ≤ 10%
viability at 5 µM (H9 cells [4]; Homo sapiens, H9, light or radiation study, 24 h, 5 μM, irradiated 10 J/cm^2, 420 nm): 0%
viability at 25 µM (H9 cells [4]; Homo sapiens, H9, light or radiation study, 24 h, 25 μM, irradiated 10 J/cm^2, 420 nm): 0%
viability at 100 µM (H9 cells [5]; no previous light activation): 28%
viability at 100 µM (H9 cells [5]; previous light activation): 0%
